25 compounds from US9206156B2, “Substituted indole derivatives” (GRÜNENTHAL GMBH, priority 2008, dated 2015) can be followed below.

One test has as its target T1, human μ-opiate receptor (Homo sapiens, UniProt P35372).
T1 construct: purchased NEN, Zaventem, Belgium RB-HOM; host or cells: CHO-K1 cells (membrane preparation)
The test can be described thus: μ-opiate receptor binding assay with [3H] naloxone (WGA-SPA beads). Conditions: 1 μmol/l test substance; 1 nmol/l [3H] naloxone; CHO-K1 cell membranes expressing human μ-opiate receptor. A digest of the protocol:
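CHO-K1 membranes expressing human μ-opiate receptor incubated 90 min at room temperature with 1 nmol/l [3H]naloxone and WGA-SPA beads in 50 mmol/l Tris-HCl with 0.05% azide, 0.06% BSA. Non-specific binding with 25 μmol/l naloxone; % inhibition at 1 μmol/l, or IC50 converted to Ki via Cheng-Prusoff.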

The target of the next test is T2, ORL1 receptor (Homo sapiens, UniProt P41146).
T2 construct: expressed in transfected cells; host or cells: CHO (recombinant CHO-ORL1 cells), membranes
Description: ORL1 receptor binding assay with 3H-nociceptin/orphanin FQ (WGA-SPA beads). Conditions: c=1 μM test substance; 0.5 nM 3H-nociceptin/orphanin FQ; membranes of recombinant CHO-ORL1 cells. The essentials:
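Radioligand displacement on membranes from recombinant CHO-ORL1 cells, 0.5 nM 3H-nociceptin/orphanin FQ, 20 μg membrane protein per batch in 50 mM Hepes pH 7.4, 10 mM MgCl2, 1 mM EDTA. Incubated 1 h at room temperature with WGA-SPA beads, scintillation read. Reported as Ki (nM) or % inhibition at 1 μM.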

T2 sequence (P41146 whole entry): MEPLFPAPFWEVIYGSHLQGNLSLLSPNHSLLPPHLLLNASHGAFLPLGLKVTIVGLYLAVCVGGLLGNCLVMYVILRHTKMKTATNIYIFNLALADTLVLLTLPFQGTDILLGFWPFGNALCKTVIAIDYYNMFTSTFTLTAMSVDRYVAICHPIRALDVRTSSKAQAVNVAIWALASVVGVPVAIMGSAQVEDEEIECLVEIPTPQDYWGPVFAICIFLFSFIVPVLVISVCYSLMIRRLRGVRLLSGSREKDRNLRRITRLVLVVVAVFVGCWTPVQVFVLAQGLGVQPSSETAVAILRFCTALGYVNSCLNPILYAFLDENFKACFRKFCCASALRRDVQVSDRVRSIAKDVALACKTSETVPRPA
T1 sequence (P35372 whole entry): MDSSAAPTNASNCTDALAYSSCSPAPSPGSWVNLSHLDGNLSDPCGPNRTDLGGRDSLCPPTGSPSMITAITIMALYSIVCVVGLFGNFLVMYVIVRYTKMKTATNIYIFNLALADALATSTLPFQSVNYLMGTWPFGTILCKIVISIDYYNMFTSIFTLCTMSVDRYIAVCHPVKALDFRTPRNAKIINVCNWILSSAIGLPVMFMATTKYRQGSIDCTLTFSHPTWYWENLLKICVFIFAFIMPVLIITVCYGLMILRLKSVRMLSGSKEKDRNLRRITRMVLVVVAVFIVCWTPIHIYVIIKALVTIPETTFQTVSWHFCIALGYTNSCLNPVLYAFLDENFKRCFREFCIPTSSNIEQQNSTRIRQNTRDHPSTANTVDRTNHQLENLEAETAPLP

As usually defined, the inhibition is the relative decrease from the control value, in per cent. `CC(CC(=O)NCCC(=O)N1CCC(c2ccccc2)(N(C)C)CC1)c1c[nH]c2ccccc12` (centres unmarked) [Example 92, N-(3-(4-(dimethylamino)-4-phenylpiperidin-1-yl)-3-oxopropyl)-3-(1H-indol-3-yl)butanamide]: the results for the inhibition at 1 µM at human μ-opiate receptor and at ORL1 receptor were 93% and 88%, respectively.
The matching figures for `CN(C)C1(c2cccs2)CCN(C(=O)CC(NC(=O)Cc2c[nH]c3cc(F)ccc23)c2ccccc2)CC1` (centres unmarked) [Example 93, N-(3-(4-(dimethylamino)-4-(thiophen-2-yl)piperidin-1-yl)-3-oxo-1-phenylpropyl)-2-(6-fluoro-1H-indol-3-yl)acetamide]: 97% and 88%.
As for `CC(C)C(C(=O)N1CCC(c2ccccc2)(N(C)C)CC1)N(C)C(=O)CCc1c[nH]c2ccccc12` (centres unmarked) [Example 94, N-(1-(4-(dimethylamino)-4-phenylpiperidin-1-yl)-3-methyl-1-oxobutan-2-yl)-3-(1H-indol-3-yl)-N-methylpropanamide], the inhibition at 1 µM on human μ-opiate receptor came to 71%; at ORL1 receptor, 82%.
With `CN(C(=O)Cc1c[nH]c2cc(F)ccc12)C(C(=O)N1CCC(c2cccs2)(N(C)C)CC1)c1ccccc1` (centres unmarked) [Example 95, N-(2-(4-(dimethylamino)-4-(thiophen-2-yl)piperidin-1-yl)-2-oxo-1-phenylethyl)-2-(6-fluoro-1H-indol-3-yl)-N-methylacetamide], the figures for the inhibition at 1 µM at human μ-opiate receptor and on ORL1 receptor were 81% and 82%, respectively.
In the case of `CN(C)C1(c2cccs2)CCN(C(=O)CC(NC(=O)c2ccc3cc[nH]c3c2)c2ccccc2)CC1` (centres unmarked) [Example 96, N-(3-(4-(dimethylamino)-4-(thiophen-2-yl)piperidin-1-yl)-3-oxo-1-phenylpropyl)-1H-indole-6-carboxamide], the inhibition at 1 µM is 96% on human μ-opiate receptor and 79% on ORL1 receptor.
The matching figures for `CN(C)C1(c2cccs2)CCN(C(=O)CC(NC(=O)C2CCCc3c2[nH]c2ccc(Cl)cc32)c2ccccc2)CC1` (centres unmarked) [Example 97, 6-chloro-N-(3-(4-(dimethylamino)-4-(thiophen-2-yl)piperidin-1-yl)-3-oxo-1-phenylpropyl)-2,3,4,9-tetrahydro-1H-carbazole-1-carboxamide]: 70% and 77%.
The matching figures for `CN(C)C1(c2ccccc2)CCN(C(=O)CCNC(=O)CCc2c[nH]c3ccccc23)CC1` [Example 98, N-(3-(4-(dimethylamino)-4-phenylpiperidin-1-yl)-3-oxopropyl)-3-(1H-indol-3-yl)propanamide]: 85% and 73%.
The corresponding values for `CN(C)C1(c2ccccc2)CCN(C(=O)CCNC(=O)c2ccc3ccn(C)c3c2)CC1` [Example 99, N-(3-(4-(dimethylamino)-4-phenylpiperidin-1-yl)-3-oxopropyl)-1-methyl-1H-indole-6-carboxamide] are 87% and 71%.
Turning to `CN(C(=O)Cc1c[nH]c2ccc(Br)cc12)C(C(=O)N1CCC(c2cccs2)(N(C)C)CC1)c1ccccc1` (centres unmarked) [Example 100, 2-(5-bromo-1H-indol-3-yl)-N-(2-(4-(dimethylamino)-4-(thiophen-2-yl)piperidin-1-yl)-2-oxo-1-phenylethyl)-N-methylacetamide], the values for the inhibition at 1 µM on human μ-opiate receptor and at ORL1 receptor were 95% and 69%, respectively.
The corresponding values for `CN(C)C1(c2cccs2)CCN(C(=O)CC(NC(=O)c2ccc3ccn(C)c3c2)c2ccccc2)CC1` (centres unmarked) [Example 101, N-(3-(4-(dimethylamino)-4-(thiophen-2-yl)piperidin-1-yl)-3-oxo-1-phenylpropyl)-1-methyl-1H-indole-6-carboxamide] are 96% and 68%.
The corresponding values for `CN(C(=O)c1ccc2cc[nH]c2c1)C(C(=O)N1CCC(c2cccs2)(N(C)C)CC1)c1ccccc1` (centres unmarked) [Example 102, N-(2-(4-(dimethylamino)-4-(thiophen-2-yl)piperidin-1-yl)-2-oxo-1-phenylethyl)-N-methyl-1H-indole-6-carboxamide] are 66% and 65%.
On to `CN(C)C1(c2ccccc2)CCN(C(=O)C2CCCN(C(=O)C3CCCc4c3[nH]c3ccc(Cl)cc43)C2)CC1` (centres unmarked) [Example 103, (6-chloro-2,3,4,9-tetrahydro-1H-carbazol-1-yl)(3-(4-(dimethylamino)-4-phenylpiperidine-1-carbonyl)piperidin-1-yl)methanone], for which the inhibition at 1 µM was 35% on human μ-opiate receptor and 65% at ORL1 receptor.
Turning to `CN(C)C1(c2ccccc2)CCN(C(=O)C2CCCN(C(=O)c3cc4cc(F)ccc4[nH]3)C2)CC1` (centres unmarked) [Example 104, (4-(dimethylamino)-4-phenylpiperidin-1-yl)(1-(5-fluoro-1H-indole-2-carbonyl)piperidin-3-yl)methanone], the inhibition at 1 µM on human μ-opiate receptor is 89%; at ORL1 receptor it was 64%.
The matching figures for `CC(C)C(CC(=O)N(C)C(C(=O)N1CCC(c2cccs2)(N(C)C)CC1)c1ccccc1)c1c[nH]c2ccccc12` (centres unmarked) [Example 105, N-(2-(4-(dimethylamino)-4-(thiophen-2-yl)piperidin-1-yl)-2-oxo-1-phenylethyl)-3-(1H-indol-3-yl)-N,4-dimethylpentanamide]: 91% and 63%.
Turning to `CC(C)C(CC(=O)N1CCCC(C(=O)N2CCC(c3ccccc3)(N(C)C)CC2)C1)c1c[nH]c2ccccc12` (centres unmarked) [Example 106, 1-(3-(4-(dimethylamino)-4-phenylpiperidine-1-carbonyl)piperidin-1-yl)-3-(1H-indol-3-yl)-4-methylpentan-1-one], the inhibition at 1 µM stood at 92% on human μ-opiate receptor and 63% at ORL1 receptor.
The matching figures for `CN(C)C1(c2ccccc2)CCN(C(=O)CCNC(=O)C2CCCc3c2[nH]c2ccc(Cl)cc32)CC1` (centres unmarked) [Example 107, 6-chloro-N-(3-(4-(dimethylamino)-4-phenylpiperidin-1-yl)-3-oxopropyl)-2,3,4,9-tetrahydro-1H-carbazole-1-carboxamide]: 52% and 63%.
The matching figures for `CN(C)C1(c2cccs2)CCN(C(=O)CC(NC(=O)c2cccc3c2ccn3C)c2ccccc2)CC1` (centres unmarked) [Example 108, N-(3-(4-(dimethylamino)-4-(thiophen-2-yl)piperidin-1-yl)-3-oxo-1-phenylpropyl)-1-methyl-1H-indole-4-carboxamide]: 98% and 63%.
`CN(C)C1(c2cccs2)CCN(C(=O)CNC(=O)c2ccc3ccn(C)c3c2)CC1` [Example 109, N-(2-(4-(dimethylamino)-4-(thiophen-2-yl)piperidin-1-yl)-2-oxoethyl)-1-methyl-1H-indole-6-carboxamide]: the figures for the inhibition at 1 µM at human μ-opiate receptor and on ORL1 receptor were 81% and 61%, respectively.
On to `CN(C(=O)CCc1c[nH]c2ccccc12)C(C(=O)N1CCC(c2cccs2)(N(C)C)CC1)c1ccccc1` (centres unmarked) [Example 110, N-(2-(4-(dimethylamino)-4-(thiophen-2-yl)piperidin-1-yl)-2-oxo-1-phenylethyl)-3-(1H-indol-3-yl)-N-methylpropanamide], for which the inhibition at 1 µM at human μ-opiate receptor was found to be 92%; on ORL1 receptor, 60%.
The corresponding values for `CN(C(=O)c1ccc2ccn(C)c2c1)C(C(=O)N1CCC(c2cccs2)(N(C)C)CC1)c1ccccc1` (centres unmarked) [Example 111, N-(2-(4-(dimethylamino)-4-(thiophen-2-yl)piperidin-1-yl)-2-oxo-1-phenylethyl)-N,1-dimethyl-1H-indole-6-carboxamide] are 82% and 60%.
For `CCCCC1(N(C)C)CCN(CCN(C)C(=O)Cc2c[nH]c3cc(F)ccc23)CC1` [Example 112, N-(2-(4-butyl-4-(dimethylamino)piperidin-1-yl)ethyl)-2-(6-fluoro-1H-indol-3-yl)-N-methylacetamide], the inhibition at 1 µM at human μ-opiate receptor worked out at 92%; on ORL1 receptor, 59%.
The matching figures for `CN(C)C1(c2ccccc2)CCN(C(=O)CCNC(=O)c2ccc3cc[nH]c3c2)CC1` [Example 113, N-(3-(4-(dimethylamino)-4-phenylpiperidin-1-yl)-3-oxopropyl)-1H-indole-6-carboxamide]: 89% and 57%.
With `CN(C)C1(c2ccccc2)CCN(C(=O)C2CN(C(=O)c3cccc4c3ccn4C)c3ccccc32)CC1` (centres unmarked) [Example 114, (4-(dimethylamino)-4-phenylpiperidin-1-yl)(1-(1-methyl-1H-indole-4-carbonyl)indolin-3-yl)methanone], the inhibition at 1 µM on human μ-opiate receptor amounted to 90%; on ORL1 receptor it was 56%.
The corresponding values for `CN(C)C1(c2ccccc2)CCN(C(=O)C2CCCN(C(=O)Cc3c[nH]c4ccc(Br)cc34)C2)CC1` (centres unmarked) [Example 115, 2-(5-bromo-1H-indol-3-yl)-1-(3-(4-(dimethylamino)-4-phenylpiperidine-1-carbonyl)piperidin-1-yl)ethanone] are 72% and 53%.
The matching figures for `CN(C)C1(c2cccs2)CCN(C(=O)CNC(=O)C2CCCc3c2[nH]c2ccc(Cl)cc32)CC1` (centres unmarked) [Example 116, 6-chloro-N-(2-(4-(dimethylamino)-4-(thiophen-2-yl)piperidin-1-yl)-2-oxoethyl)-2,3,4,9-tetrahydro-1H-carbazole-1-carboxamide]: 83% and 50%.
